Holding throughout (assay type): functional
What all share (conditions): time 24-48 hrs

Assay [1] concerns Clostridioides difficile. Briefly: Antibacterial activity against Clostridioides difficile assessed as bacterial growth inhibition measured at 24 to 48 hrs.
Assay [2] relates to Clostridioides difficile. Briefly: Antibacterial activity against multi drug resistant Clostridioides difficile assessed as bacterial growth inhibition measured at 24 to 48 hrs.
Assay [3] has as its system Clostridioides difficile. In words: Antibacterial activity against Clostridioides difficile ATCC 43255 assessed as bacterial growth inhibition measured at 24 to 48 hrs.
Assay [4] deals with Clostridioides difficile. Briefly: Antibacterial activity against drug sensitive Clostridioides difficile assessed as bacterial growth inhibition measured at 24 to 48 hrs.

Converted amounts (≈) assume the structure as drawn.

Take `Cn1c(-c2nc(-c3ccc(OC4CCCC4)cc3)no2)cnc1[N+](=O)[O-]`: in the assay on Clostridioides difficile [1], the MIC came to 32 µg/mL (≈ 90.1 µM).

With `O=[N+]([O-])c1c[nH]c(-c2nc(-c3ccc(OC4CCCC4)cc3)no2)n1`, the MIC90 in the assay with Clostridioides difficile [2] and with Clostridioides difficile [4] was 1 µg/mL (≈ 2.93 µM) in each case. Besides, in the assay on Clostridioides difficile [3], the minimum inhibitory concentration (MIC) came out at 0.25 µg/mL (≈ 0.732 µM). Regarding `Oc1ccc(-c2nc(-c3ccc(OC4CCCC4)cc3)no2)cc1`, the minimal inhibitory concentration (MIC) in the assay on Clostridioides difficile [3] turned out to be 2 µg/mL (≈ 6.2 µM). As for `O=[N+]([O-])c1cn(CCO)c(-c2nc(-c3ccc(OC4CCCC4)cc3)no2)n1`, the minimal inhibitory concentration (MIC) in the assay with Clostridioides difficile [1] is above 128 µg/mL.

As for `Cc1ncc([N+](=O)[O-])n1CCO` [METRONIDAZOLE], the MIC with Clostridioides difficile [1] is 0.25 µg/mL (≈ 1.46 µM). In the case of `FC(F)(F)c1ccc(Oc2ccc(-c3noc(-c4ccc5[nH]ccc5c4)n3)cc2)cc1`, the MIC in the assay on Clostridioides difficile [3] was found to be 4 µg/mL (≈ 9.49 µM).

Broadly, the MIC is the least concentration at which growth counts as inhibited. The MIC90 is an inhibitory concentration at the 90% level, which refers to growth in some studies and to a panel of isolates in others.

Source of the values: ChEMBL document CHEMBL5370617, “Identification of a 1,2,4-Oxadiazole with Potent and Specific Activity against Clostridioides difficile, the Causative Bacterium of C. difficile Infection, an Urgent Public Health Threat” (2023).
